Experimental findings from patent US12433875B2, “(R)-4-(1-(6-(4-(trifluoromethyl)benzyl)-6-azaspiro[2.5]octane-5-carboxamido)-cyclopropyl) benzoic acid or its salt also in polymorphic form a for use in the prevention of heterotopic ossification” (ROTTAPHARM BIOTECH S.R.L., priority 2019, dated 2025) are described below.

Entries after “also recorded” stand apart in the source; their conditions may differ.

For assay [1], the system named is PBMC's from healthy volunteers (Th17 IL-17F memory cells). The assay can be described thus: Human T-helper (Th) cell polarization, flow cytometry. It is filed as cell-based. The following applies: 100 nM; rIL-2 and rIL-21 5 ng/ml, anti-CD3 and anti-CD28 1.5 ng/ml, PGE2 30 nM, 48 hour; FIG. 12. On the procedure: FIG. 12a is the spydergram illustrating the preferential inhibitory effect of the form A of the sodium salt of (R)-4-(1-(6-(4-(trifluoromethyl)benzyl)-6-azaspiro[2.5]octane-5-carboxamido)cyclopropyl)benzoic acid on Th17 polarization towards Th17 IL-17F memory cells induced by a stimulation with rIL-2 and rIL-21 (both at 5 ng/ml) in combination with anti-CD3 and anti-CD28 (both at 1.5 ng/ml) co-stimulated with PGE2 (30 nM) over a 48 hour. Stimulated cells were normalized to 100%.
FIG. 12b represents the percent of Th17 IL-17F memory cell stimulation (mean±sem) of cells taken by individual donors vs. their baseline levels in the absence or in the presence of 100 nM form A of the sodium salt of (R)-4-(1-(6-(4-(trifluoromethyl)benzyl)-6-azaspiro[2.5]octane-5-carboxamido)cyclopropyl)benzoic acid.
In this model the ability of the Form A of the sodium salt of (R)-4-(1-(6-(4-(trifluoromethyl)benzyl)-6-azaspiro[2.5]octane-5-carboxamido)cyclopropyl)benzoic acid to interacts with the immunological features able to influence pathological bone formation was studied. Specifically, the effect of the Form A of the sodium salt of (R)-4-(1-(6-(4-(trifluoromethyl)benzyl)-6-azaspiro[2.5]octane-5-carboxamido)cyclopropyl)benzoic acid on the Th-cell polarization in human Tcells stimulated by inflammatory agents was studied. […]
A general note: Flow cytometry measures light scatter and fluorescence of single cells or particles in a stream.

Assay [2] concerns Male Lewis rats (CIA model, heterotopic bone formation). Nature of the assay: Collagen Induce Arthritis (CIA) in rats, histological scores. The format is in vivo, rat. From the text:
Collagen Induce Arthritis (CIA) in rats is among the most common models used to mimic human arthritis and especially Rheumatoid Arthritis (RA). In general the joint response seen in this model is quite similar to that observed in human pathology, in terms of inflammation, bone erosion and cartilage damage. Nevertheless, this model differs from Rheumatoid Arthritis, since it is endowed with a consistent periosteal woven bone formation (immature bone) that is not a usual feature of human RA (maybe, less than 10% of patients have this type of bone reaction). On the contrary, this disordered apposition of new bone is the distinctive feature of heterotopic ossification. Therefore, this model was used to study the effect of the compound of the invention in Pathological heretopic osteogenesis.
Male Lewis rats were immunized by intradermal injection at the base of the tail with an emulsion containing 150 μg of bovine collagen type II (bCII) in complete Freund's adjuvant (CFA) or received an injection with incomplete Freund's adjuvant (sham group). Three weeks after the first immunisation, animals were boosted with the same procedure. Three days after booster injection, arthritis had developed in all animals but the sham group. The administration of the compound (1) Form A started at this time point and lasted for 14 days (once a day, unless otherwise indicated).
The paws were fixed in 10% neutral buffered formalin (Bio-Optica, Milan, Italy) and subsequently decalcified in EDTA for 4 weeks. Samples were dehydrated in an ethanol series and embedded in paraffin. At least three non-consecutive sections for each paw were blindly scored at the level of the tarsus, metatarsus and calcaneus for the following histological features of woven bone. Two independent pathologists performed histopathology on blinded slides. The data of right and left hind limbs were summed for each rat.
In FIG. 3 the dose-response curve for the compound of the invention is reported. the compound was administered once a day for 14 days on the site where the pathological bone formation was expected as induced in the CIA model in rats. The dose were 1 mg/Kg, 3 mg/kg and 10 mg/kg. The data were expressed as the median (boxed area), 95% interquartile range (whiskers), and individual data (symbols) of the histological scores for heterotopic bone formation (osteogenesis) given by two pathologists unaware of the treatment groups on a following scale: 0=absent; 1=mild/focal; 2=moderate/multifocal; 3=severe/multifocal to diffuse. Since arthritis was bilateral, the scores for each rat was the sum of the two leg scores. […] The compound reached the maximal activity at 10 mg/kg.
The data were expressed as the median histological scores for heterotopic bone formation (osteogenesis) as described for FIG. 3. […] As for osteogenesis, the data reported in this graph were the median (boxed area), 95% interquartile range (whiskers), and individual data (symbols) of the histological scores for synovial hyperplasia (oedema) given by two pathologists unaware of the treatment groups on a following scale: 0=normal: 1-2 layers of synovial lining cells, 1=mild: focal to multifocal 3-4 layers of synovial lining cells and/or mild proliferation of subsynovial tissue, 2=moderate: focal to mutlitfocal >4-6 layers of synovial lining cells and/or moderate proliferation of subsynovial tissue, 3=severe: multifocal to diffuse >6-8 layers of synovial lining cells and/or severe proliferation of subsynovial tissue. Since arthritis was bilateral, the scores for each rat is the sum of the two leg scores. This underline a preferential and surprising effect of (R)-4-(1-(6-(4-(trifluoromethyl)benzyl)-6-azaspiro[2.5]octane-5-carboxamido)cyclopropyl)benzoic acid on the heterotopic bone formation, […].
The free acid form has been assayed in the rat CIA model as already described for its sodium salt (Form A). […]

Take `O=C([O-])c1ccc(C2(NC(=O)[C@H]3CC4(CCN3Cc3ccc(C(F)(F)F)cc3)CC4)CC2)cc1.[Na+]` [Form A, sodium (R)-4-(1-(6-(4-(trifluoromethyl)benzyl)-6-azaspiro[2.5]octane-5-carboxamido)cyclopropyl)benzoate]: the “polarization of Th17 cells towards IL-17F producing population (Th17 IL-17F memory cells)” value in assay [1] is “reduce significantly the polarization of Th17 cells towards a population capable to produce IL-17F”. For the same molecule, in assay [2] (1 mg/kg combined with methotrexate 0.5 mg/kg every other day, FIG. 5), the “activity against heterotopic ossification in combination with methotrexate” value is reported as “not hindered by the combination with this drug”. In addition, the “activity against heterotopic ossification compared with methotrexate” value in assay [2] (1 mg/kg vs methotrexate 0.5 mg/kg every other day, FIG. 5) was “higher than the comparative compound”. Besides, the “activity on heterotopic bone formation (osteogenesis) compared with Methylsulfonylmethane (MSM)” value in assay [2] (10 mg/kg once a day vs MSM 600 mg/kg, FIG. 4) is “greatly superior”. Further, the “control of the inflammatory response (edema; histological scores for synovial hyperplasia)” value in assay [2] (15 mg/kg each, FIG. 6b) is “equally effective”. For the same molecule, the “activity in preventing pathological heterotopic ossification compared with rofecoxib” value in assay [2] (15 mg/kg, identical dose of rofecoxib, FIG. 6a) is on record as “surprisingly superior”. Besides, in assay [2] (1, 3 and 10 mg/kg once a day for 14 days, FIG. 3), the “histological scores for heterotopic bone formation (osteogenesis)” value was “capable to counteract the heterotopic bone formation; also recorded: able to counteract bony spur formation in a dose-dependent fashion”. In addition, in assay [2] (FIG. 5), the “lowest effective dose against heterotopic ossification” value came out at 1 mg/kg. Moreover, the “dose of maximal activity against heterotopic bone formation” value in assay [2] (once a day for 14 days, FIG. 3) worked out at 10 mg/kg.
